# Assays:
# [1] = biological target: Heat shock factor protein (Homo sapiens) (UniProt Q00613+Q03933+Q9ULV5); test: Activation of HSF in human HeLa cell clone 13B after 8 hrs by luciferase reporter gene assay; assay type: cell-based
# [2] = Cytotoxicity against human HeLa cells incubated for 8 hrs measured after 6 hrs by Alamar blue assay; assay type: cell-based; settings: read-out: LC50
# [3] = Toxicity in iv dosed anaesthetized rat assessed as decrease in blood pressure administered as infusion; assay type: organism-based; settings: in vivo
# [4] = Cytotoxicity against African green monkey 37RC cells by microscopic method; assay type: cell-based; settings: chlorocebus aethiops
# [5] = Cytotoxicity against African green monkey 37RC cells incubated for 8 hrs measured after 6 hrs by neutral red assay; assay type: cell-based; settings: chlorocebus aethiops, read-out: LC50
# Respirovirus muris = test: Antiviral activity against Sendai virus infected in African green monkey 37RC cells assessed as inhibition of viral replication at 24 hrs by haemagglutinin titration method; assay type: functional; settings: read-out: ID50 (the source's name)
smiles,measurement,setting,value
CCCCC1C=CC(=O)/C1=C/C1CC1 (configuration not stated),AC200,[1],8 µM
same,CC50 at 8 h,[2],239 µM
CCCCC[C@H](O)/C=C/[C@H]1[C@H](O)CC(=O)[C@@H]1CCCCCCC(=O)O [ALPROSTADIL],Activity,[3],Toxic
CC(C)/C=C1/C(=O)C=CC1NC(=O)OC(C)(C)C (configuration not stated),TD100,[4],50 µM
same,AC200,[1],2.8 µM
same,CC50 at 8 h,[5],4 µM
same,CC50 at 8 h,[2],> 800 µM
same,IC50,Respirovirus muris,1 µM
O=C1C[C@@H](NC(=O)Oc2ccccc2)[C@H](Sc2ccc3ccccc3c2)C1,AC200,[1],26 µM
same,CC50 at 8 h,[5],113 µM
CC(C)/C=C1/C(=O)C=C[C@@H]1NC(=O)OC(C)(C)C,TD100,[4],50 µM
same,AC200,[1],1.8 µM
same,CC50 at 8 h,[5],4 µM
same,CC50 at 8 h,[2],> 800 µM
same,IC50,Respirovirus muris,1 µM
CC(C)(C)OC(=O)N[C@@H](CS[C@@H]1CC(=O)/C(=C/c2ccccc2)[C@H]1NC(=O)OC(C)(C)C)C(=O)O,AC200,[1],< 6.2 µM
same,CC50 at 8 h,[5],25 µM
CC1C=CC(=O)/C1=C/c1ccccc1 (configuration not stated),TD100,[4],50 µM
same,AC200,[1],3 µM
same,CC50 at 8 h,[2],314 µM
same,IC50,Respirovirus muris,0.9 µM
O=C1C=CC(NC(=O)Oc2ccccc2)C1 (configuration not stated),AC200,[1],10 µM
same,CC50 at 8 h,[5],74 µM
O=C1C[C@H](Sc2ccc3ccccc3c2)[C@H](NC(=O)Oc2ccccc2)C1,AC200,[1],28 µM
same,CC50 at 8 h,[5],183 µM
CC(C)(C)OC(=O)NC1C=CC(=O)/C1=C/c1ccc(Cl)cc1 (configuration not stated),TD100,[4],10 µM
same,AC200,[1],2 µM
same,CC50 at 8 h,[5],3.4 to 72 µM
same,CC50 at 8 h,[2],> 800 µM
same,IC50,Respirovirus muris,0.6 µM
O=C1C=CC(NC(=O)CCl)C1 (configuration not stated),AC200,[1],< 6.2 µM
same,CC50 at 8 h,[5],79 µM
Cc1cc(C)c(/C=C2/C(=O)C=C[C@@H]2NC(=O)OC(C)(C)C)c(C)c1,AC200,[1],< 6.2 µM
same,CC50 at 8 h,[5],25 µM
CCOC(=O)NC1C=CC(=O)C1 (configuration not stated),AC200,[1],49 µM
same,CC50 at 8 h,[5],104 µM
CCCCC/C=C1/C(=O)C=CC1C (configuration not stated),AC200,[1],> 100 µM
same,CC50 at 8 h,[2],> 800 µM
COC(=O)[C@H](CSC1CC(=O)/C(=C/C(C)C)C1C)NC(=O)OC(C)(C)C (some centres not stated),AC200,[1],18 µM
same,CC50 at 8 h,[2],> 800 µM
CC(C)/C=C1/C(=O)C=CC1C (configuration not stated),AC200,[1],13 µM
same,CC50 at 8 h,[2],> 800 µM
CC(C)(C)OC(=O)NC1C=CC(=O)C1 (configuration not stated),TD100,[4],100 µM
same,AC200,[1],51 µM
same,CC50 at 8 h,[2],> 800 µM
same,IC50,Respirovirus muris,20 µM
CC(C)/C=C1/C(=O)C=C[C@H]1NC(=O)OC(C)(C)C,TD100,[4],10 µM
same,AC200,[1],5 µM
same,CC50 at 8 h,[5],4 µM
same,CC50 at 8 h,[2],> 800 µM
same,IC50,Respirovirus muris,0.4 µM
CCCCC[C@H](O)/C=C/[C@H]1C=CC(=O)[C@@H]1CCCCCCC(=O)O [PROSTAGLANDIN A1],Activity,[3],Toxic
CC(C)(C)OC(=O)NC1C=CC(=O)/C1=C/c1ccccc1 (configuration not stated),TD100,[4],10 µM
same,AC200,[1],1.8 µM
same,CC50 at 8 h,[5],33 µM
same,CC50 at 8 h,[2],> 800 µM
same,IC50,Respirovirus muris,0.6 µM
CC(C)/C=C1\C(=O)C=CC1NC(=O)c1ccccc1 (configuration not stated),TD100,[4],10 µM
same,AC200,[1],< 6.2 µM
same,CC50 at 8 h,[5],4 µM
same,CC50 at 8 h,[2],50 µM
same,IC50,Respirovirus muris,0.3 µM
CCOC(=O)N(C(=O)OC(C)(C)C)C1C=CC(=O)C1 (configuration not stated),AC200,[1],18 µM
same,CC50 at 8 h,[5],233 µM
O=C1C=CC(NC(=O)c2ccccc2)C1 (configuration not stated),TD100,[4],100 µM
same,AC200,[1],51 µM
same,CC50 at 8 h,[5],59 µM
same,CC50 at 8 h,[2],> 800 µM
same,IC50,Respirovirus muris,20 µM
CCCCCC/C=C1/C(=O)C=CC1C (configuration not stated),AC200,[1],< 6.2 µM
same,CC50 at 8 h,[2],234 µM
Cc1ccc(S(=O)(=O)NC(=O)OC2C=CC(=O)C2)cc1 (configuration not stated),AC200,[1],13 µM
same,CC50 at 8 h,[2],> 800 µM
C[C@H]1C=CC(=O)/C1=C/c1ccc([N+](=O)[O-])cc1,AC200,[1],2 µM
same,CC50 at 8 h,[2],> 800 µM
CCCCC1C=CC(=O)/C1=C/CC(C)C (configuration not stated),TD100,[4],50 µM
same,AC200,[1],13 µM
same,CC50 at 8 h,[2],227 µM
same,IC50,Respirovirus muris,0.3 µM
COC(=O)[C@H](CS[C@@H]1CC(=O)C[C@H]1NC(=O)Oc1ccccc1)NC(=O)OC(C)(C)C,AC200,[1],13 µM
same,CC50 at 8 h,[5],76 µM
O=C1C=CC(Nc2ccccc2)C1 (configuration not stated),AC200,[1],27 µM
same,CC50 at 8 h,[2],> 800 µM
CCCCC1C=CC(=O)/C1=C/C(C)C (configuration not stated),TD100,[4],10 µM
same,AC200,[1],13 µM
same,CC50 at 8 h,[2],506 µM
same,IC50,Respirovirus muris,0.3 µM

# Source: ChEMBL document CHEMBL3880439, “Cyclopentanone and cyclopentanone derivatives as potent activators of HSF-1” (2004)
